Reference: patent CN104710358A, “喹啉-4-甲酰胺衍生物及其医药用途” (Chengdu Military General Hospital of PLA, priority 2015, dated 2015)

Test system: PTSD rat conditioned fear response [束缚应激致PTSD大鼠条件恐惧反应]
Experiment: Conditioned fear response in restraint-stress-induced PTSD rats (freezing after foot shock)
Type: in vivo
Conditions: dose not given, Fig. 1

Cc1ccc(Cl)cc1N1CCN(CCCNC(=O)c2ccnc3ccccc23)CC1 [化合物1, N-{3-[4-(5-氯-2-甲基苯基)哌嗪基]丙基}-喹啉-4-甲酰胺, 盐酸乙醚成盐]
percentage of freezing time (PTSD group, before versus after drug administration, 5 min test in shock box (CS+) without current): 显著降低 | inhibition of PTSD conditioned fear response (PTSD rats): 显著抑制PTSD条件性恐惧反应 | anxiety level of PTSD rats (PTSD rats, inferred from the conditioned fear test): 降低PTSD大鼠的焦虑水平
